Numbers after ± are expanded uncertainties.
Assay: xn = mol fraction of the nth substance listed
Settings: 101 kPa, Liquid; for viscosity: Capillary tube (Ostwald / Ubbelohde) method; for speed of sound: Linear variable-path acoustic interferometer; for mass density: Pycnometric method

CC1OC(C)OC(C)O1 (centres undefined) [2,4,6-trimethyl-1,3,5-trioxane] + CCOC(=O)OCC
Settings | mass density, 288.15 K [kg/m3] | speed of sound, 288.15 K [m/s] | viscosity, 288.15 K [mPa·s] | viscosity, 298.15 K [mPa·s]
x1 = 0.0215 | 980.99 ± 1.3 | 1224 ± 2.7 | 0.877 ± 0.012 | 0.756 ± 0.01
x1 = 0.0425 | 981.54 ± 1.3 | 1222.6 ± 2.7 | 0.885 ± 0.012 | 0.763 ± 0.01
x1 = 0.0615 | 982.03 ± 1.3 | 1221.4 ± 2.7 | 0.892 ± 0.012 | 0.768 ± 0.01
x1 = 0.0816 | 982.54 ± 1.3 | 1220.3 ± 2.7 | 0.899 ± 0.012 | 0.774 ± 0.01
x1 = 0.1036 | 983.08 ± 1.3 | 1219.1 ± 2.7 | 0.906 ± 0.012 | 0.779 ± 0.01
x1 = 0.1911 | 985.12 ± 1.4 | 1215.7 ± 2.7 | 0.931 ± 0.012 | 0.798 ± 0.011
x1 = 0.317 | 987.74 ± 1.4 | 1213.4 ± 2.7 | 0.959 ± 0.013 | 0.819 ± 0.011
x1 = 0.4272 | 989.8 ± 1.4 | 1213.2 ± 2.7 | 0.985 ± 0.013 | –
x1 = 0.5162 | 991.35 ± 1.4 | 1213.8 ± 2.7 | 1.011 ± 0.013 | –
x1 = 0.608 | 992.87 ± 1.4 | 1214.8 ± 2.7 | 1.047 ± 0.014 | –
x1 = 0.7032 | 994.41 ± 1.3 | 1215.7 ± 2.7 | 1.098 ± 0.014 | –
x1 = 0.7984 | 995.94 ± 1.3 | 1216.2 ± 2.7 | 1.167 ± 0.015 | –
x1 = 0.8957 | 997.54 ± 1.4 | 1216.7 ± 2.7 | 1.26 ± 0.017 | –
x1 = 1 | 999.69 ± 1.3 | 1217.7 ± 2.7 | 1.374 ± 0.018 | –

Source: the NIST ThermoML archive (doi:10.1021/je050183a)
